Source: the METLIN SMRT retention time set (Domingo-Almenara et al. 2019)

Test: gradient 5% acetonitrile 3 min, to 50% in 2 min, to 85% in 15 min, held 3 min, 100 µL/min
Conditions: column: Zorbax Extend-C18 2.1 x 50 mm; eluents: water / acetonitrile, 0.1% formic acid
Summary of the method: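 In both positive and negative ionization mode, a quadrupole time-of-flight mass spectrometer coupled to HPLC analyzed pure standards run in mixtures of ~100 molecules. The Zorbax Extend-C18 column (2.1 × 50 mm, 1.8 μm) was operated at 100 μL/min with water and acetonitrile, each containing 0.1% formic acid. The dead volume was 40 μL and the dwell volume 900 μL. Retention time came from adduct peaks that were computationally picked and individually inspected by hand.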

Compound | RP-LC retention time [s]
Cc1ccc(OCC(O)Cn2c(C3CC3)nc3ccccc32)cc1 (stereo not drawn) | 697
O=C(Cn1ccn2nc(-c3ccccc3)c(CO)c2c1=O)Nc1ccc2c(c1)OCO2 | 1030
CCOC(=O)c1cccc(Nc2nc(-c3cccnc3)nc3ccccc23)c1 | 832
CCC1Oc2ccc(S(=O)(=O)N3CCC(C(=O)Nc4ccc(Cl)cc4)CC3)cc2NC1=O (stereo not drawn) | 950
COc1ccc(Nc2c(-c3ccc(N(C)C)cc3)nc3cnc(Br)cn23)cc1OC | 812
COCc1cc(=O)n(CC(=O)Nc2cc(C)cc(C)c2)c(N2CCOCC2)n1 | 893
Cc1ccc(-c2ncc(C(=O)NCC3CCCCC3)c(-c3ccncc3)n2)cc1 | 992
COc1cccc(N2CCN(C(=O)CCc3nnc4c5cc(-c6ccccc6)nn5ccn34)CC2)c1 | 791
O=C(CC1CCN(C(=O)c2ccc3oc(-c4ccccc4)nc3c2)CC1)NCc1ccco1 | 793
Cc1cccc(N2CCN(C(=O)CN3C(=O)CN(C)C(=O)c4ccccc43)CC2C)c1 (stereo not drawn) | 671
COc1ccc(Cn2cc(C(=O)O)nn2)cc1F | 641
NC(=O)c1nnsc1-c1ccc(-c2snnc2C(N)=O)cc1 | 694
CCNC(=O)C1CC(=O)N(c2cccc(C)c2)C1 (stereo not drawn) | 658
CC(C)NC(=O)c1ccc(OCC2CCN(C(=O)c3ccc(F)cc3Cl)CC2)cc1 | 888
COC(=O)Nc1ccc(S(=O)(=O)NCc2ccc(C)cc2)cc1 | 788
Cc1sc2ccn(Cc3ccc(F)cc3)c(=O)c2c1C(=O)NC1CC1 | 759
O=C(Cn1cnc2c(sc3nc(-c4ccccc4)ccc32)c1=O)Nc1ccccc1Cl | 1020
CC(=O)N1CCc2ccccc2C1C(=O)NCc1cc(F)cc(F)c1 (stereo not drawn) | 764
COc1ccccc1-c1noc(C2CCCN2C(=O)Nc2ccc(Br)cc2)n1 (stereo not drawn) | 964
Nc1cccc2c1CN(C1CCC(=O)NC1=O)C2=O (stereo not drawn) | 595
CC(=O)Nc1ccc(NC(=O)CSc2ccc(N3CCCC(C(=O)NC4CC4)C3)nn2)cc1 (stereo not drawn) | 584
COc1ccc(C2Cn3nnc(-c4nc(-c5ccccc5C)no4)c3CO2)cc1 (stereo not drawn) | 1200
O=C(Nc1ccc(Br)cc1)C1CC(=O)N(c2n[nH]c3cccc(F)c23)C1 (stereo not drawn) | 782
CCN(CC)S(=O)(=O)c1ccc2c(c1)N(CC(=O)N(C)Cc1ccco1)C(=O)C1CCCCN21 (stereo not drawn) | 959
C#CCCOC(=O)Nc1ccccc1 | 878

Compound | RP-LC retention time [s]
Cc1cccc(-n2c(=O)c3c(cc(C)n3C)n(CC(=O)Nc3ccc(C)c(F)c3)c2=O)c1 | 866
CCCCN(CCCC)C(=O)C1CCCN1S(=O)(=O)c1cccc2nsnc12 (stereo not drawn) | 1080
O=C1CCCCC(Cc2ccccc2)(C(=O)O)N1 (stereo not drawn) | 652
Cc1cc(=O)n(CC(=O)Nc2ccccc2)c(N)n1 | 580
CCN1c2ccc(C)cc2C(=O)NC12CCN(C(=O)Cc1ccccc1)CC2 | 820
CCOC(=O)c1nn(-c2ccccc2C)c(=O)cc1NCc1ccc2c(c1)OCO2 | 874
CCOc1ccc(NS(=O)(=O)c2c(C)sc(C)c2-c2n[nH]c(C)c2C)cc1 | 1040
COCCN1C(=O)c2ccccc2C(C(=O)Nc2ccc3c(c2)OCO3)C1c1ccc(F)cc1 (stereo not drawn) | 875
O=C(Nc1ccccc1)N1CCC(N2CCN(Cc3cccc(F)c3)C(=O)C2=O)CC1 | 691
CCOC(=O)C1=C(CN2CCC(c3ccc(C)cc3)C2)NC(=O)NC1c1cccc(OC)c1OC (stereo not drawn) | 713
Cc1ccc(-c2nnc(CC(=O)NCCc3ccc(Cl)cc3)o2)cc1 | 906
O=C(NCCCN1CCCC1)C1CCCN(c2ncc(-c3ccc(F)cc3)cn2)C1 (stereo not drawn) | 674
COc1ccc(-c2nnc3sc(-c4cc(C)on4)nn23)cc1 | 864
Cc1cccc(NC(=O)N2CCCC2c2cc(C)no2)c1 (stereo not drawn) | 780
Cc1ccc(NC(=O)CN2C(=O)NC3(CCCCC3)C2=O)cc1 | 760
Cc1ccccc1-c1nnc(CSc2nnc(NC(=O)CCc3ccccc3)s2)o1 | 977
CCC(C)NC(=O)N(C)CCc1noc(COc2ccc(Cl)cc2)n1 (stereo not drawn) | 869
Cc1oc2c(c1C(=O)Nc1cccc(C(F)(F)F)c1)C1=NCCN1C=N2 | 652
O=C(c1ccsc1)N1CCC2(CC1)NCc1ccccc1-n1ccnc12 | 588
Cc1ccc(C)c(N2CCN(C(=O)C3CCN(S(=O)(=O)c4cccc5nsnc45)CC3)CC2)c1 | 1070
O=C(NCc1nc(-c2ccc(NS(=O)(=O)c3ccc(F)cc3)cc2)no1)c1cccs1 | 867
Cc1ccc(N2CCC(NC(=O)Nc3cccc(C)c3C)C2=O)cc1C (stereo not drawn) | 906
COc1cccc(-c2noc(C3CC(=O)N(c4ccc(Cl)cc4)C3)n2)c1OC (stereo not drawn) | 963
Cc1ccc(C(=O)NC2CCN(c3cc(N4CCCC4)cnn3)C2)s1 (stereo not drawn) | 649

Continued, values first:

RP-LC retention time [s] | Compound
753 | O=C(c1cccc2[nH]cc(CN3CCOCC3)c12)N1CCN(c2ccc(Cl)cc2)CC1
1120 | CCOC(=O)c1nc(N(Cc2cccs2)C2CCCC2)c2ccccc2n1
1280 | COc1ccc(-c2nc(-c3ccc(S(=O)(=O)N4CCCCC4)cc3)no2)cc1
784 | Cc1ccc(C)c(N2CCN(Cc3nc(-c4ccc(N5CCCC5)nc4)no3)CC2)c1
677 | COc1ccc(C(=O)NCc2nnc(SCC(=O)N3CCCc4ccccc43)o2)cc1
1100 | Cc1nc(-c2cc(S(=O)(=O)Nc3ccc(F)c(F)c3)c(C)s2)sc1C
742 | CCc1ccccc1NC(=O)Cn1ccc2sccc2c1=O
817 | CCc1noc(NC(C)=O)c1-c1ccc(OC)c(S(=O)(=O)N2CCCCCC2)c1
586 | Cc1ccc(CNC(=O)C2CCN(C(=O)c3cc(-c4cccnc4)n[nH]3)CC2)o1
697 | O=C(Cn1cnc2cc3c(cc21)OCCO3)Nc1cccc(C(F)(F)F)c1
606 | Cc1nn(CC(=O)N2CCCN(C)CC2)c(=O)c2nc(-c3ccccc3)sc12
536 | c1cc(CSc2cc(N3CCCC3)ncn2)ccn1
737 | COC(=O)c1cc2n(n1)CC(C)(C(=O)NC1CCCCC1)N(c1cccc(F)c1)C2=O (stereo not drawn)
1080 | COc1ccc(-c2noc(-c3nc(-c4ccc(OC)c(OC)c4)no3)n2)cc1OC
744 | CCC(C)NC(=O)C1COC2(CCN(C(=O)c3ccc(F)cc3F)CC2)N1C(=O)c1ccccc1 (stereo not drawn)
566 | Cc1nc(-c2cccnc2)nc2c1CCC(=O)N2Cc1ccccn1
703 | COc1ccc(CC(=O)NCC2CCN(C(=O)c3cc4ccccc4o3)CC2)cc1OC
1060 | COc1cc(OC)c(Nc2cc(C)nc3nc(-c4ccc(C)cc4)nn23)cc1Cl
846 | CCn1nnc2cc(-c3noc(C(C)NS(=O)(=O)c4ccc(C)cc4)n3)ccc21 (stereo not drawn)
665 | COc1cccc(NC(=O)Nc2c(-c3ccccc3)nc3ccccn23)c1

RP-LC retention time [s] | Compound
925 | COc1ccccc1-c1noc(C2CCCN2C(=O)Nc2ccc(C)c(C)c2)n1 (stereo not drawn)
781 | CCc1cc(=O)n(CC(=O)N2CCCc3ccccc32)c(N2CCOCC2)n1
1090 | CC(=O)N1CCN(c2cc(-c3nc(-c4cccc(F)c4)no3)c3ccccc3n2)CC1
650 | CN(CCNC(=O)C1CCCN(c2nnc(-n3cccc3)s2)C1)C1CCCCC1 (stereo not drawn)
773 | CN1C(=O)Cc2cc(C(=O)NCc3ccccc3C(F)(F)F)ccc21
681 | CCc1nc(-c2csc(S(=O)(=O)N3CCCC(C(=O)NCc4ccccn4)C3)c2)no1 (stereo not drawn)
795 | Cc1ccc(NC(=O)COc2cccc3c(=O)n(C)ccc23)cc1
632 | Cc1cccc2c1cnn2C(=O)CCC(=O)N1CCN(c2ccccn2)CC1
834 | COc1ccc(NC(=O)N2CCCC2c2nc(-c3ccccc3OC)no2)cc1F (stereo not drawn)
967 | CCOc1ccc(NC(=O)C2CCCN2S(=O)(=O)c2ccc(OCC)cc2)cc1 (stereo not drawn)
726 | Cc1nn(CCC(=O)NCCc2ccco2)c(=O)c2nn(-c3ccccc3)c(C)c12
988 | CCOC(=O)c1[nH]c(C)c(C(=O)C(C)N(C(=O)c2cccc(F)c2)C2CC2)c1C (stereo not drawn)
656 | Cc1ccc(Nc2nc(N3CCN(CCO)CC3)nc3c2C(=O)CCC3)cc1
1270 | O=S(=O)(c1ccc2c(c1)CCCC2)N1CCCC1c1nc(-c2ccccc2)no1 (stereo not drawn)
857 | O=C(Nc1ccccc1)OC1CCCC(NC(=O)C2(c3ccccc3)CCOCC2)C1 (stereo not drawn)
797 | CCOC(=O)c1c(C)[nH]c(C)c1S(=O)(=O)N1CCC(C(=O)Nc2cccc(C#N)c2)CC1
679 | Cc1ccc(-n2nc(N3CCCN(C(=O)c4n[nH]c5c4CCCC5)CC3)ccc2=O)cc1
870 | CNS(=O)(=O)c1ccc(Cl)c(-c2nnc(-c3ccccc3)o2)c1
954 | COc1ccc(C(=O)Nc2nnc(SCc3ccccc3Cl)s2)cc1OC
